Among the data in PubChem BioAssay (NCI) are GI50 and TGI values, retold here.

SMILES strings stand for the structures.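 Five concentrations, 48 hours, 96-well plates. Here, GI50 denotes the concentration required for 50% inhibition of growth. Definition used: TGI = concentration required for complete inhibition of growth.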

Some test systems named below: CCRF-CEM leukemia; T-47D breast; BT-549 breast; SF-539 CNS; MDA-MB-435; SK-MEL-28 melanoma; PC-3 prostate; HT29 colon; HCT-15 colon; MCF7 breast.
Common to all, as to assay: NCI-60 cell line screen, 48 h

On to `COc1ccc2c(c1)C(=O)c1c-2c(OCCN(C)C)nc2cc(OC)ccc12`, for which the GI50 with CCRF-CEM leukemia is 0.536 µM; with T-47D breast it was 6.1 µM; in the experiment on BT-549 breast it was 4.03 µM; in the experiment with SF-539 CNS, 1.61 µM; in the experiment with MDA-MB-435, 1.62 µM; with SK-MEL-28 melanoma, 2.08 µM. The GI50 in the experiment with PC-3 prostate was 1.24 µM; in the experiment on HT29 colon, 0.333 µM; in the experiment with HCT-15 colon it was 0.475 µM; with MCF7 breast, 0.348 µM. Also, the TGI in the experiment with CCRF-CEM leukemia stood at 2.85 µM; with T-47D breast, 21.8 µM; in the experiment on BT-549 breast, 15.2 µM; with SF-539 CNS it was 3.32 µM; in the experiment on MDA-MB-435, 3.72 µM; in the experiment with SK-MEL-28 melanoma it was 4.19 µM. Also, the TGI in the experiment with PC-3 prostate amounted to 3.69 µM; in the experiment with HT29 colon, 1.37 µM; in the experiment on HCT-15 colon it was 2.39 µM; with MCF7 breast, 1.6 µM.
Regarding `CC(C)(C)OC(=O)N1CC(Cn2cc(C(F)(F)F)c3c(Cl)ncnc32)C1`, the GI50 in the experiment with CCRF-CEM leukemia was 3.05 µM; in the experiment with T-47D breast, 5.51 µM; in the experiment on BT-549 breast, 1.62 µM; with SF-539 CNS, 11.3 µM; in the experiment on MDA-MB-435, 1.72 µM; in the experiment with SK-MEL-28 melanoma it was 1.91 µM. Further, the GI50 with PC-3 prostate was 1.76 µM; in the experiment on HT29 colon, 2.6 µM; in the experiment on HCT-15 colon, 2 µM; in the experiment with MCF7 breast, 2.13 µM. Further, the TGI in the experiment on CCRF-CEM leukemia turned out to be 9.19 µM; with T-47D breast it was 27.1 µM; in the experiment on BT-549 breast, 3.06 µM; in the experiment on SF-539 CNS it was 24.6 µM; with MDA-MB-435 it was 3.14 µM; with SK-MEL-28 melanoma it was 3.53 µM. Also, the TGI in the experiment with PC-3 prostate was 3.5 µM; in the experiment on HT29 colon, 6.67 µM; in the experiment on HCT-15 colon it was 4.4 µM; in the experiment on MCF7 breast it was 6.15 µM.
`COc1ccc(N2CCN(CN3CCN(c4ccc(OC)cc4)C3)C2)cc1`: the GI50 in the experiment with CCRF-CEM leukemia is 33.4 µM; in the experiment with T-47D breast it was above 100 µM; in the experiment with BT-549 breast, 79.7 µM; with SF-539 CNS it was above 100 µM; in the experiment with MDA-MB-435 it was above 100 µM; in the experiment with SK-MEL-28 melanoma, above 100 µM. For the same compound, the GI50 in the experiment on PC-3 prostate was above 100 µM; in the experiment with HT29 colon it was above 100 µM; in the experiment with HCT-15 colon, 37 µM; in the experiment with MCF7 breast, 69.5 µM. In addition, the TGI in the experiment on CCRF-CEM leukemia, in the experiment on T-47D breast, with BT-549 breast, in the experiment on SF-539 CNS, in the experiment on MDA-MB-435 and in the experiment on SK-MEL-28 melanoma was above 100 µM in each case. Also, the TGI in the experiment on PC-3 prostate, with HT29 colon, in the experiment on HCT-15 colon and in the experiment with MCF7 breast was above 100 µM in each case.
Consider `COc1ccc(C2=CC(c3ccc(Oc4ccnc5cc(Cl)ccc45)c(OC)c3)c3c(nc(OC)[nH]c3=O)N2)cc1` (stereo not given), for which the GI50 with CCRF-CEM leukemia was 3.25 µM; in the experiment with T-47D breast, 6.83 µM; with BT-549 breast it was 3.99 µM; in the experiment with SF-539 CNS it was 20.7 µM; in the experiment on MDA-MB-435, 5.06 µM; in the experiment on SK-MEL-28 melanoma, 45.3 µM. The GI50 in the experiment on PC-3 prostate is 6.29 µM; with HT29 colon it was 4.24 µM; in the experiment on HCT-15 colon, 3.85 µM; in the experiment with MCF7 breast, 3.56 µM. The TGI in the experiment on CCRF-CEM leukemia, with T-47D breast, in the experiment on BT-549 breast, with SF-539 CNS, in the experiment with MDA-MB-435 and in the experiment with SK-MEL-28 melanoma was above 100 µM in each case. Besides, the TGI in the experiment with PC-3 prostate, with HT29 colon, in the experiment on HCT-15 colon and with MCF7 breast was above 100 µM in each case.
With `Cc1cc(C(=O)N[C@@H](CCC(=O)O)C(=O)O)sc1CC[C@@H]1CNc2nc(N)[nH]c(=O)c2C1`, the GI50 in the experiment with CCRF-CEM leukemia is 0.0316 µM; in the experiment with T-47D breast, 0.0825 µM; in the experiment on BT-549 breast it was 0.0883 µM; with SF-539 CNS it was below 0.01 µM; in the experiment with MDA-MB-435, 0.0296 µM; in the experiment on SK-MEL-28 melanoma it was 0.0377 µM. Further, the GI50 with PC-3 prostate was below 0.01 µM; in the experiment with HT29 colon it was below 0.0178 µM; in the experiment on HCT-15 colon, 0.042 µM; in the experiment with MCF7 breast, 0.0102 µM. Also, the TGI in the experiment with CCRF-CEM leukemia, in the experiment on T-47D breast, with BT-549 breast, with SF-539 CNS, with MDA-MB-435 and with SK-MEL-28 melanoma was above 100 µM each time. The TGI in the experiment with PC-3 prostate, in the experiment with HT29 colon, in the experiment with HCT-15 colon and in the experiment on MCF7 breast was above 100 µM throughout.
As to `COc1ccccc1-c1ccc2nc(NC(=O)Nc3cc(C(F)(F)F)cc(C(F)(F)F)c3)sc2c1`, the GI50 in the experiment with CCRF-CEM leukemia was 2.43 µM; in the experiment with T-47D breast it was 2.16 µM; with BT-549 breast it was 1.62 µM; with SF-539 CNS, 1.99 µM; in the experiment on MDA-MB-435 it was 2.27 µM; in the experiment on SK-MEL-28 melanoma, 2.51 µM. In addition, the GI50 was 1.49 µM in the experiment on PC-3 prostate, 2.15 µM in the experiment with HT29 colon, 2.55 µM in the experiment on HCT-15 colon and 2.28 µM in the experiment with MCF7 breast. For the same compound, the TGI with CCRF-CEM leukemia stood at 15 µM; in the experiment with T-47D breast, 9.89 µM; with BT-549 breast it was 3.72 µM; in the experiment on SF-539 CNS it was 5.5 µM; with MDA-MB-435 it was 6.73 µM; with SK-MEL-28 melanoma, 9.1 µM. Also, the TGI in the experiment with PC-3 prostate was 6.93 µM; with HT29 colon it was 9.21 µM; with HCT-15 colon it was 10.6 µM; in the experiment with MCF7 breast it was 10.9 µM.
As for `CSC1=Nc2c(c(C)c(-c3ccccc3)n2CCCCl)C2=NC(=O)CN12`, the GI50 is 5.08 µM with CCRF-CEM leukemia; 2.63 µM with T-47D breast; 4.93 µM with BT-549 breast; 3.42 µM in the experiment on SF-539 CNS; 2.03 µM in the experiment on MDA-MB-435; 10.2 µM with SK-MEL-28 melanoma. In addition, the GI50 in the experiment on PC-3 prostate is 8.68 µM; in the experiment on HT29 colon, 3.85 µM; with HCT-15 colon it was 4.11 µM; in the experiment on MCF7 breast, 3.42 µM. Besides, the TGI is above 100 µM with CCRF-CEM leukemia; 10.9 µM with T-47D breast; 35.6 µM with BT-549 breast; 14 µM in the experiment on SF-539 CNS; 4.65 µM in the experiment on MDA-MB-435; 25.4 µM in the experiment with SK-MEL-28 melanoma. Also, the TGI was above 100 µM in the experiment on PC-3 prostate, 19.5 µM in the experiment on HT29 colon, 21.4 µM with HCT-15 colon and 16.5 µM in the experiment with MCF7 breast.
